In PMC6368365, “Didehydro-Cortistatin A Inhibits HIV-1 by Specifically Binding to the Unstructured Basic Region of Tat” (mBio, 2019):

How the values were obtained:
[1] = target: T1, Hexim-1 binding to 7SK snRNP (Homo sapiens, UniProt O94992); assay: RNA immunoprecipitation of 7SK snRNP by intracellular Hexim-1; format: cell-based; conditions: HeLa-CD4-LTR-LacZ cells, 48 h
T1 construct: endogenous in cells; host or cells: HeLa-CD4-LTR-LacZ (RNA immunoprecipitation); HeLa-CD4-LTR-Luc (immunofluorescence)
Excerpt: (A) Sequence of the basic domains of HIV Tat HXB3, HIV Rev Bru and intracellular Hexim-1. […] Shown is confocal microscopy analysis of the subcellular localization of transfected FLAG-Tat or FLAG-Rev in the presence of DMSO or dCA in HeLa-CD4-LTR-Luc cells. Proteins were recognized with anti-FLAG and Alexa Fluor 568-tagged anti-IgG. Magnification 60×. Data are representative of n = 2 independent experiments. (C) Quantification of the nucleolar fluorescence of panel B using ImageJ. Data are the mean ± SEM from 3 to 4 different cells. […] HeLa-CD4-LTR-LacZ cells were infected with strain NL4-3 for 24 hours. The next day, compounds (dCA, 10 nM; KPT, 400 nM; and SCM, 10 nM) were added for 24 hours. Total, nuclear, and cytoplasmic mRNAs were extracted, and viral messages were determined by qRT-PCR. GAPDH was used for normalization. Data are the mean ± SD from n = 5 independent experiments. […] (G) Quantification of nuclear fluorescence of panel F using ImageJ. […] Statistical significance was determined using one-way ANOVA with post hoc Tukey’s test. ns, not significant; ***, P < 0.0001; **, P < 0.001.
Hexim-1 directly binds to cyclin T1 and is responsible for the inactivation of the kinase activity of P-TEFb ([35], [36]). […] Intracellular Hexim-1 was immunoprecipitated, and 7SK snRNP bound to Hexim-1 was extracted, reverse transcribed, and quantified by qRT-PCR as previously described ([42]) (Fig. 3E). […]

[2] = target: T2, Trp^11 of Tat protein (Human immunodeficiency virus type 1 group M subtype B, UniProt P69697); assay: Trp fluorescence assay of recombinant Tat; format: binding, HIV-1; conditions: for effect on intrinsic Trp fluorescence of Tat: compound/Tat ratio of 7.5/1
T2 construct: pTatC6H-1 (NIH AIDS Reagent Program) plasmid encoding C-terminal 6xHistidine Tat1-86 (HXB3, subtype B); made in house; host or cells: E. coli BL21 (plasmid pTatC6H-1, NIH AIDS Reagent Program)
Excerpt: Next, we investigated whether dCA mediated conformational changes in Tat. NMR studies have reported the fluorescence of Tat’s unique Trp^11 to be highly sensitive to conformational modifications ([2], [15]). As such, we assessed Tat fluorescence between wavelengths of 310 nm and 410 nm (Fig. 5A, left).
FIG 5 dCA stabilizes Tat structure. (A) Trp fluorescence assays. (Left) Schematic of the assay. (Center) DMSO, dCA (7.5× Tat concentration) or raltegravir (Ralt.; 7.5× Tat concentration) was incubated with Tat. The fluorescence of the Trp^11 of Tat protein was measured at the indicated wavelengths. Acrylamide (250 mM) was used as a quenching control of Tat fluorescence. (Right) Peak absorbance (λmax) versus increasing fold ratios of compounds to Tat protein. Data are representative of n = 3 independent experiments. (B) DARTS assays. Tat was incubated with DMSO or dCA, at increasing concentrations, in the presence of increasing concentrations of proteinase K (PK). […] Data are representative of n = 2 independent experiments. (C) Steady state of Tat in the presence of dCA in vivo. HeLa-CD4-LTR-Luc cells were incubated with recombinant Tat and then washed and incubated with the indicated compounds for 6 hours. […] (Left) Western blot representative of n = 4 independent experiments. MG132 was used as a positive control of Tat protection from degradation, and raltegravir was used as a negative control. (Right) Densitometry of the Tat band normalized to the actin band. Results represent the mean ± SEM from n = 4 independent experiments. Statistical significance was determined using one-way ANOVA with post hoc Tukey’s test. ns, not significant; ***, P < 0.0001; **, P < 0.001.
Recombinant Tat (2.5 μM) was incubated with different concentrations of dCA or raltegravir in a 96-well plate. The solution was excited at 280 nm, and the emission of Trp fluorescence was read from 310 to 410 nm. The background induced by the compounds alone or buffer of dilution was subtracted from the Trp signal. Acrylamide (250 mM) was used as a quencher of the fluorescence.

T2 sequence (P69697 whole entry): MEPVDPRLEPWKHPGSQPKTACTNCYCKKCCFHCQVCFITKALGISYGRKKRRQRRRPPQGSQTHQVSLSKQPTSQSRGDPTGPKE
T1 sequence (O94992 whole entry): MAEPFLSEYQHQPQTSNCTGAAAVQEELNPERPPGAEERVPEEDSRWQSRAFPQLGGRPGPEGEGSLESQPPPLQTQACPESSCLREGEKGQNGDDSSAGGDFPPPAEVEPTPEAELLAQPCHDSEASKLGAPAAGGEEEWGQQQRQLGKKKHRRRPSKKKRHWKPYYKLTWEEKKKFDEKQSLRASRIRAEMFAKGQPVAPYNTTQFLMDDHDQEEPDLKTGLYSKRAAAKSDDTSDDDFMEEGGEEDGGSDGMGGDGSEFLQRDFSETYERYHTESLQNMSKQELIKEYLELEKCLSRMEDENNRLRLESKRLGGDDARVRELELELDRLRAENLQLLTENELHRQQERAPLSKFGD

Row | Compound | interaction between Hexim-1 and 7SK snRNP [1] | λmax of Tat Trp fluorescence ([2]; compound/Tat ratio 7.5/1, Tat alone 360 nm) [nm] | effect on intrinsic Trp fluorescence of Tat [2] | I330/350 ratio of Tat Trp fluorescence ([2]; dCA/Tat ratio of 7.5/1, Tat alone 0.73)
1 | C[C@@](Cc1ccc(O)c(O)c1)(NN)C(=O)O.O [SCM, S-(−)-carbidopamonohydrate, reference compound] | similarly detected |  |  | 
2 | CN(C)C1CC23CCC4(O2)C(=CCC2(C)C(c5ccc6ccncc6c5)=CCC24)C=C3C(O)C1O (stereo not drawn) [dCA, didehydro-cortistatin A] | similarly detected | 350 | decreased intensity of the Trp fluorescence | 0.893
3 | Cc1nnc(C(=O)NC(C)(C)c2nc(C(=O)NCc3ccc(F)cc3)c(O)c(=O)n2C)o1 [raltegravir, reference compound] |  |  | no effect on the intrinsic fluorescence of Tat | 
